Results on 19 compounds are retold here after ChEMBL document CHEMBL1136811, “Design of novel chimeric melanotropin-deltorphin analogues. Discovery of the first potent human melanocortin 1 receptor antagonist” (J Med Chem, 2003).

Test [1] addresses Melanocortin receptor 1 (Xenopus laevis). In words: Agonistic activity towards Melanocortin 1 receptor in the Xenopus frog skin assay.
For test [2], the system named is Melanocortin receptor 1 (Xenopus laevis). The test is described as follows: Antagonistic activity towards Melanocortin 1 receptor in Xenopus frog skin using competitive binding in the presence of 500 pM of alpha-melanocyte stimulating hormone.

pEC50: −log10 of the molar value. Where only a bound is given, the exact number is not on record here.

`CC(C)[C@H](NC(=O)[C@@H]1CCC(=O)NCCC(=O)N[C@@H](Cc2cnc[nH]2)C(=O)N[C@H](Cc2ccccc2)C(=O)N[C@@H](CCCNC(=N)N)C(=O)N[C@@H](Cc2c[nH]c3ccccc23)C(=O)N1)C(=O)N[C@H](C(=O)NCC(N)=O)C(C)C`: the negative logarithm of the EC50 (pEC50) (usually −log10 of the EC50, conventionally taken in molar units) in test [1] was 7.51.

In test [1], `CC(C)[C@H](NC(=O)[C@@H]1CCC(=O)NCCCC(=O)N[C@@H](Cc2cnc[nH]2)C(=O)N[C@H](Cc2ccc3ccccc3c2)C(=O)N[C@@H](CCCNC(=N)N)C(=O)N[C@@H](Cc2c[nH]c3ccccc23)C(=O)N1)C(=O)N[C@H](C(=O)NCC(N)=O)C(C)C` gave a pEC50 of 7.64. This pEC50 and that of the compound before are within 0.2 log units of each other.

In the case of `CC(C)[C@H](NC(=O)[C@@H]1CCC(=O)NCCC(=O)N[C@@H](Cc2c[nH]cn2)C(=O)N[C@H](Cc2ccc3ccccc3c2)C(=O)N[C@@H](CCCN=C(N)N)C(=O)N[C@@H](Cc2c[nH]c3ccccc23)C(=O)N1)C(=O)N[C@H](C(=O)NCC(N)=O)C(C)C`, the IC50 result in test [2] is recorded as “Not Active”. In test [1], this compound had a pEC50 of 8.70.

For the compound `CC(C)[C@H](NC(=O)[C@@H]1CCC(=O)NCCCC(=O)N[C@@H](Cc2c[nH]cn2)C(=O)N[C@@H](Cc2ccccc2)C(=O)N[C@@H](CCCN=C(N)N)C(=O)N[C@@H](Cc2c[nH]c3ccccc23)C(=O)N1)C(=O)N[C@H](C(=O)NCC(N)=O)C(C)C`, in test [2], the IC50 entry is on record as “Not Active”. Further, in test [1], the pEC50 was 5.57.

For the compound `CC(C)[C@H](NC(=O)[C@@H]1CCC(=O)NCC(=O)N2CCC[C@H]2C(=O)N[C@H](Cc2ccc3ccccc3c2)C(=O)N[C@@H](CCCN=C(N)N)C(=O)N[C@@H](Cc2c[nH]c3ccccc23)C(=O)N1)C(=O)N[C@H](C(=O)NCC(N)=O)C(C)C`, the pEC50 in test [1] was less than 5.00.

As to `CC(C)[C@H](NC(=O)[C@@H]1CCC(=O)NCC(=O)N[C@@H](Cc2cnc[nH]2)C(=O)N[C@@H](Cc2ccccc2)C(=O)N[C@@H](CCCNC(=N)N)C(=O)N[C@@H](Cc2c[nH]c3ccccc23)C(=O)N1)C(=O)N[C@H](C(=O)NCC(N)=O)C(C)C`, the IC50 result in test [2] is listed as “Not Active”. In test [1], this compound showed a pEC50 of 5.28.

Consider `CC(C)[C@H](NC(=O)[C@@H]1CCC(=O)NCCCCCC(=O)N[C@@H](Cc2c[nH]cn2)C(=O)N[C@@H](Cc2ccccc2)C(=O)N[C@@H](CCCN=C(N)N)C(=O)N[C@@H](Cc2c[nH]c3ccccc23)C(=O)N1)C(=O)N[C@H](C(=O)NCC(N)=O)C(C)C`, for which, in test [2], the IC50 result was “Not Active”. In addition, the pEC50 in test [1] is less than 5.00.

Consider `CC(C)[C@H](NC(=O)[C@@H]1CCC(=O)NCC(=O)N[C@@H](Cc2c[nH]cn2)C(=O)N[C@H](Cc2ccc3ccccc3c2)C(=O)N[C@@H](CCCN=C(N)N)C(=O)N[C@@H](Cc2c[nH]c3ccccc23)C(=O)N1)C(=O)N[C@H](C(=O)NCC(N)=O)C(C)C`, for which, in test [2], the IC50 entry is listed as “Not Active”. The compound also showed a pEC50 in test [1] of 7.22.

As to `CC(C)[C@H](NC(=O)[C@@H]1CCC(=O)N2CCC[C@H]2C(=O)N[C@H](Cc2ccc3ccccc3c2)C(=O)N[C@@H](CCCN=C(N)N)C(=O)N[C@@H](Cc2c[nH]c3ccccc23)C(=O)N1)C(=O)N[C@H](C(=O)NCC(N)=O)C(C)C`, in test [1], the negative logarithm of the EC50 (pEC50) was less than 5.00.

For `CC(C)[C@H](NC(=O)[C@@H]1CCC(=O)N[C@@H](Cc2c[nH]cn2)C(=O)N[C@H](Cc2ccccc2)C(=O)N[C@@H](CCCN=C(N)N)C(=O)N[C@@H](Cc2c[nH]c3ccccc23)C(=O)N1)C(=O)N[C@H](C(=O)NCC(N)=O)C(C)C`, the pEC50 in test [1] was 6.08.

`CC(C)[C@H](NC(=O)[C@@H]1CCC(=O)NCC(=O)N[C@@H](Cc2c[nH]cn2)C(=O)N[C@H](Cc2ccccc2)C(=O)N[C@@H](CCCN=C(N)N)C(=O)N[C@@H](Cc2c[nH]c3ccccc23)C(=O)N1)C(=O)N[C@H](C(=O)NCC(N)=O)C(C)C`: the IC50 entry in test [2] was “Not Active”. Further, the pEC50 in test [1] was 6.29.

Compound `CC(C)[C@H](NC(=O)[C@@H]1CCC(=O)N[C@@H](Cc2cnc[nH]2)C(=O)N[C@@H](Cc2ccccc2)C(=O)N[C@@H](CCCNC(=N)N)C(=O)N[C@@H](Cc2c[nH]c3ccccc23)C(=O)N1)C(=O)N[C@H](C(=O)NCC(N)=O)C(C)C` gave a negative logarithm of the EC50 (pEC50) in test [1] of less than 5.00.

Compound `CC(C)[C@H](NC(=O)[C@@H]1CCC(=O)NCC(=O)N2CCC[C@H]2C(=O)N[C@H](Cc2ccccc2)C(=O)N[C@@H](CCCN=C(N)N)C(=O)N[C@@H](Cc2c[nH]c3ccccc23)C(=O)N1)C(=O)N[C@H](C(=O)NCC(N)=O)C(C)C` gave a negative logarithm of the EC50 (pEC50) in test [1] of less than 5.00.

As for `CC(C)[C@H](NC(=O)[C@@H]1CCC(=O)NCCC(=O)N[C@@H](Cc2c[nH]cn2)C(=O)N[C@H](Cc2ccccc2)C(=O)N[C@@H](CCCN=C(N)N)C(=O)N[C@@H](Cc2c[nH]c3ccccc23)C(=O)N1)C(=O)N[C@H](C(=O)NCC(N)=O)C(C)C`, the IC50 result in test [2] was “Not Active”.

Consider `CC(C)[C@H](NC(=O)[C@@H]1CCC(=O)NCCCC(=O)N[C@@H](Cc2c[nH]cn2)C(=O)N[C@H](Cc2ccccc2)C(=O)N[C@@H](CCCN=C(N)N)C(=O)N[C@@H](Cc2c[nH]c3ccccc23)C(=O)N1)C(=O)N[C@H](C(=O)NCC(N)=O)C(C)C`, for which, in test [2], the IC50 entry is “Not Active”. In addition, the pEC50 in test [1] was 6.50.

On to `CC(C)[C@H](NC(=O)[C@@H]1CCC(=O)NCCCC(=O)N[C@@H](Cc2c[nH]cn2)C(=O)N[C@H](Cc2ccc3ccccc3c2)C(=O)N[C@@H](CCCN=C(N)N)C(=O)N[C@@H](Cc2c[nH]c3ccccc23)C(=O)N1)C(=O)N[C@H](C(=O)NCC(N)=O)C(C)C`, for which the IC50 result in test [2] is recorded as “Not Active”.

`CC(C)[C@H](NC(=O)[C@@H]1CCC(=O)NCC(=O)N[C@@H](Cc2cncn2COCc2ccccc2)C(=O)N[C@H](Cc2ccccc2)C(=O)N[C@@H](CCCN=C(N)N)C(=O)N[C@@H](Cc2c[nH]c3ccccc23)C(=O)N1)C(=O)N[C@H](C(=O)NCC(N)=O)C(C)C` gave a pEC50 in test [1] of less than 5.00.

On to `CC(C)[C@H](NC(=O)[C@@H]1CCC(=O)N[C@@H](Cc2c[nH]cn2)C(=O)N[C@H](Cc2ccc3ccccc3c2)C(=O)N[C@@H](CCCN=C(N)N)C(=O)N[C@@H](Cc2c[nH]c3ccccc23)C(=O)N1)C(=O)N[C@H](C(=O)NCC(N)=O)C(C)C`, for which the IC50 entry in test [2] is “Not Active”. The compound also showed a pEC50 in test [1] of 7.22.

`CC(C)[C@H](NC(=O)[C@@H]1CCC(=O)NCCCCCC(=O)N[C@@H](Cc2c[nH]cn2)C(=O)N[C@H](Cc2ccccc2)C(=O)N[C@@H](CCCN=C(N)N)C(=O)N[C@@H](Cc2c[nH]c3ccccc23)C(=O)N1)C(=O)N[C@H](C(=O)NCC(N)=O)C(C)C`: the IC50 result in test [2] is recorded as “Not Active”. Also, the negative logarithm of the EC50 (pEC50) in test [1] was 7.64.
